Measurements as given in patent EP0206783A2, “Expression and secretion of polypeptides from saccharomyces cerevisiae” (The Salk Institute Biotechnology Industrial Associates, Inc., priority 1985, dated 1986).
Ends that are not written are not given here.

System: pituitary cells
Assay: rat pituitary cell bioassay for GRF (release of growth hormone)
Type: cell-based
Settings: plated rat pituitary cells, dexamethasone added, GH measured by anti-rat GH RIA; yeast peptide purified, from pTRP213-transformed GG100-14D
Procedure: A rat pituitary cell bioassay for GRF was conducted using the purified GRF analog secreted from pTRP213-transformed S. cerevisiae cells (GG100-14D). The ability of the GRF analog to cause the release of growth hormone from the pituitary cells was measured and compared to the ability of a synthetic hGRF(1-40)-OH standard to do the same. Such an analysis allowed the biological activity of yeast-produced GRF analog to be evaluated.
Typically, pituitaries of 20 rats were removed and treated with collagenase to obtain a suspension of approximately 8×10^7 cells which were then plated in the appropriate medium. The cells, attached to tissue culture dishes, were treated with yeast-derived peptide or synthetic standard within three to five days after plating. Dexamethasone was added to enhance the effect of GRF on GH secretion; cells treated in this manner secrete 8-9 times more GH than do control cells treated with GRF but not dexamethasore. Growth hormone secretion levels were measured using an anti-rat GH RIA which had been standardized with respect to the synthetic standard.
The percent of maximum rat growth hormone secretion upon treatment of the plated pituitary cells with purified GRF analog secreted from yeast and treatment with synthetic hGRF(1-40)-OH was determined. The ED50 value for secretion with both treatments was about. 32 pM.

hGRF(1-40)-OH (YADAIFTNSYRKVLGQLSARKLLQDIMSRQQGESNQERGA-OH; UniProt P01286 32-71, looked up, fragment) [synthetic hGRF(1-40)-OH, synthetic polypeptide standard, hGRF(1-40)-OH (with Met at position 27)]
ED50 value for secretion (percent of maximum rat growth hormone secretion): ~0.032 nM
